Results from US8642799B2, “Cysteine protease inhibitors for the treatment of parasitic diseases” (Merck Canada Inc., priority 2007, dated 2014).

Each compound was assayed against cruzipain (Trypanosoma cruzi, UniProt P25779) (assay: biochemical). Conditions: 50 pM cruzipain, pH 5.5, 15 minutes preincubation, 2 μM Z-Phe-Arg-AMC substrate.
Method: The assay solutions were mixed and incubated for 15 minutes at room temperature prior to the addition of 2 μM of Z-Phe-Arg-AMC substrate. […] Percent of inhibition were calculated by fitting experimental values to standard mathematical model for dose response curve.

Chain of cruzipain (P25779 123-467): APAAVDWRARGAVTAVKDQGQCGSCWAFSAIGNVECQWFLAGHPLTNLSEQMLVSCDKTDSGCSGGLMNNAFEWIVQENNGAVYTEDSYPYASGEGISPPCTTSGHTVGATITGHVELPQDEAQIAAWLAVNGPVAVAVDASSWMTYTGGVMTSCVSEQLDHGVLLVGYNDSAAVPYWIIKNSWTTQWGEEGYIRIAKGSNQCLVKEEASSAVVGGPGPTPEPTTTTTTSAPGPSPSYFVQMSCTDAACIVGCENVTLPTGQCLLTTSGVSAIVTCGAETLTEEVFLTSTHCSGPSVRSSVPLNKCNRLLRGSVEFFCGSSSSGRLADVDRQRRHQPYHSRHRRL

In order of falling IC50:
1. CC(C)(F)C[C@H](N[C@@H](c1ccc(-c2ccc(C3(c4ncon4)CC3)cc2)cc1)C(F)(F)F)C(=O)N[C@H](C#N)Cc1ccccc1 [Example 29, (S)-4-Fluoro-4-methyl-2-{(S)-2,2,2-trifluoro-1-[4′-(1-[1,2,4]oxadiazol-3-yl-cyclopropyl)-biphenyl-4-yl]-ethylamino}-pentanoic acid ((S)-1-cyano-2-phenyl-ethyl)-amide]  20 nM
2. CC(C)(F)C[C@H](N[C@@H](c1ccc(-c2ccc(S(N)(=O)=O)cc2)cc1)C(F)(F)F)C(=O)N[C@H](C#N)Cc1ccccc1 [Example 31, (S)-4-Fluoro-4-methyl-2-[(S)-2,2,2-trifluoro-1-(4′-sulfamoyl-biphenyl-4-yl)-ethylamino]-pentanoic acid ((S)-1-cyano-2-phenyl-ethyl)-amide]  16 nM
3. Cn1cccc1-c1ccc([C@H](N[C@@H](CC(C)(C)F)C(=O)N[C@H](C#N)Cc2ccccc2)C(F)(F)F)cc1 [Example 35, (S)-4-Fluoro-4-methyl-2-{(S)-2,2,2-trifluoro-1-[4-(1-methyl-1H-pyrrol-2-yl)-phenyl]-ethylamino}-pentanoic acid ((S)-1-cyano-2-phenyl-ethyl)-amide]  12.2 nM
4. CC(C)[C@H](N[C@@H](c1ccc(Br)cc1)C(F)(F)F)C(=O)N[C@H](C#N)Cc1ccccc1 [Example 40, (S)-2-[(S)-1-(4-Bromo-phenyl)-2,2,2-trifluoro-ethylamino]-N-((S)-1-cyano-2-phenyl-ethyl)-3-methyl-butyramide]  10.5 nM
5. CC(C)(F)C[C@H](N[C@@H](c1ccc(-c2ccc(C3(C#N)CC3)cc2)cc1)C(F)(F)F)C(=O)N[C@H](C#N)Cc1ccccc1 [Example 27, (S)-2-{(S)-1-[4′-(1-Cyano-cyclopropyl)-biphenyl-4-yl]-2,2,2-trifluoro-ethylamino}-4-fluoro-4-methyl-pentanoic acid ((S)-1-cyano-2-phenyl-ethyl)-amide]  10.4 nM
6. CC(C)(F)C[C@H](N[C@@H](c1ccc(Br)cc1)C(F)(F)F)C(=O)N[C@H](C#N)Cc1ccc(C#N)cc1F [Example 44, (S)-2-[(S)-1-(4-Bromo-phenyl)-2,2,2-trifluoro-ethylamino]-4-fluoro-4-methyl-pentanoic acid [(S)-1-cyano-2-(4-cyano-2-fluoro-phenyl)-ethyl]-amide]  9.4 nM
7. CC(C)(F)C[C@H](N[C@@H](c1ccc(-c2ccc(C3(C(=O)NCC(F)(F)F)CC3)cc2)cc1)C(F)(F)F)C(=O)N[C@H](C#N)Cc1ccccc1 [Example 54, 1-[4′-((S)-1-{(S)-1-[((S)-Benzyl-cyano-methyl)-carbamoyl]-3-fluoro-3-methyl-butylamino}-2,2,2-trifluoro-ethyl)-biphenyl-4-yl]-cyclopropanecarboxylic acid (2,2,2-trifluoro-ethyl)-amide]  9.4 nM
8. CC(C)(F)C[C@H](N[C@@H](c1ccc(-c2ccc([C@@H](O)C(F)F)cc2)cc1)C(F)(F)F)C(=O)NC(C#N)Cc1ccc(C(F)(F)F)cc1F (stereo partly drawn) [Example 37, (S)-2-{(S)-1-[4′-((R)-2,2-Difluoro-1-hydroxy-ethyl)-biphenyl-4-yl]-2,2,2-trifluoro-ethylamino}-4-fluoro-4-methyl-pentanoic acid [cyano-(2-fluoro-4-trifluoromethyl-benzyl)-methyl]-amide]  9.3 nM
9. CC(C)(F)C[C@H](N[C@@H](c1ccc(-c2ccc(-c3cc[n+]([O-])cc3)cc2)cc1)C(F)(F)F)C(=O)N[C@H](C#N)Cc1ccccc1 [Example 45, (S)-4-Fluoro-4-methyl-2-{(S)-2,2,2-trifluoro-1-[4′-(1-oxy-pyridin-4-yl)-biphenyl-4-yl]-ethylamino}-pentanoic acid ((S)-1-cyano-2-phenyl-ethyl)-amide]  7.8 nM
10. CC(C)[C@H](N[C@@H](c1ccc(-c2ccncc2)cc1)C(F)(F)F)C(=O)N[C@H](C#N)Cc1ccccc1 [Example 49, (S)-N-((S)-Benzyl-cyano-methyl)-3-methyl-2-[(S)-2,2,2-trifluoro-1-(4-pyridin-4-yl-phenyl)-ethylamino]-butyramide]  5.6 nM
11. CC(C)(F)C[C@H](N[C@@H](c1ccc(-c2ccc(S(C)(=O)=O)cc2)cc1)C(F)(F)F)C(=O)NC(C#N)Cc1ccc(C(F)(F)F)cc1F (stereo partly drawn) [Example 33, (S)-4-Fluoro-4-methyl-2-[(S)-2,2,2-trifluoro-1-(4′-methanesulfonyl-biphenyl-4-yl)-ethylamino]-pentanoic acid [cyano-(2-fluoro-4-trifluoromethyl-benzyl)-methyl]-amide]  3.5 nM
12. CC(C)[C@H](N[C@@H](c1ccc(-c2ccc([C@@H](O)C(F)F)cc2)cc1)C(F)(F)F)C(=O)N[C@H](C#N)Cc1ccccc1 [Example 50, (S)-N-((S)-Benzyl-cyano-methyl)-2-{(S)-1-[4′-((R)-2,2-difluoro-1-hydroxy-ethyl)-biphenyl-4-yl]-2,2,2-trifluoro-ethylamino}-3-methyl-butyramide]  3.2 nM
13. COC(=O)CNC(=O)C1(c2ccc(-c3ccc([C@H](N[C@@H](CC(C)(C)F)C(=O)N[C@H](C#N)Cc4ccccc4)C(F)(F)F)cc3)cc2)CC1 [Example 53, ({1-[4′-((S)-1-{(S)-1-[((S)-Benzyl-cyano-methyl)-carbamoyl]-3-fluoro-3-methyl-butylamino}-2,2,2-trifluoro-ethyl)-biphenyl-4-yl]-cyclopropanecarbonyl}-amino)-acetic acid methyl ester]  3.1 nM
14. CC(C)(F)C[C@H](N[C@@H](c1ccc(-c2ccc(C3(C(=O)NCCO)CC3)cc2)cc1)C(F)(F)F)C(=O)N[C@H](C#N)Cc1ccccc1 [Example 52, 1-[4′-((S)-1-{(S)-1-[((S)-Benzyl-cyano-methyl)-carbamoyl]-3-fluoro-3-methyl-butylamino}-2,2,2-trifluoro-ethyl)-biphenyl-4-yl]-cyclopropanecarboxylic acid (2-hydroxy-ethyl)-amide]  2.8 nM
15. CC(C)(F)C[C@H](N[C@@H](c1ccc(-c2ccc(S(C)(=O)=O)cc2)cc1)C(F)(F)F)C(=O)NC(C#N)Cc1ccc(F)cc1F (stereo partly drawn) [Example 34, (S)-4-Fluoro-4-methyl-2-[(S)-2,2,2-trifluoro-1-(4′-methanesulfonyl-biphenyl-4-yl)-ethylamino]-pentanoic acid [cyano-(2,4-difluoro-benzyl)-methyl]-amide]  2.6 nM
16. CC(C)(F)C[C@H](N[C@@H](c1ccc(-c2ccc(S(C)(=O)=O)cc2)cc1)C(F)(F)F)C(=O)N[C@H](C#N)Cc1ccc(C(F)(F)F)cc1F [Example 46, (S)-4-Fluoro-4-methyl-2-[(S)-2,2,2-trifluoro-1-(4′-methanesulfonyl-biphenyl-4-yl)-ethylamino]-pentanoic acid [(S)-cyano-(2-fluoro-4-trifluoromethyl-benzyl)-methyl]-amide]  1.5 nM
17. CC(C)(F)C[C@H](N[C@@H](c1ccc(-c2ccc([C@@H](O)C(F)F)cc2)cc1)C(F)(F)F)C(=O)N[C@H](C#N)Cc1ccc(C#N)cc1F [Example 32, (S)-2-{(S)-1-[4′-((R)-2,2-Difluoro-1-hydroxy-ethyl)-biphenyl-4-yl]-2,2,2-trifluoro-ethylamino}-4-fluoro-4-methyl-pentanoic acid [(S)-cyano-(4-cyano-2-fluoro-benzyl)-methyl]-amide]  0.9 nM
18. CC(C)(O)Cc1ccc(-c2ccc([C@H](N[C@@H](CC(C)(C)F)C(=O)N[C@H](C#N)Cc3ccc(C#N)cc3F)C(F)(F)F)cc2)cc1 [Example 42, (S)-4-Fluoro-4-methyl-2-{(S)-2,2,2-trifluoro-1-[4′-(2-hydroxy-2-methyl-propyl)-biphenyl-4-yl]-ethylamino}-pentanoic acid [(S)-1-cyano-2-(4-cyano-2-fluoro-phenyl)-ethyl]-amide]  0.9 nM
19. CC(C)[C@H](N[C@@H](c1ccc(-c2ccc(C3(C(N)=O)CC3)cc2)cc1)C(F)(F)F)C(=O)N[C@H](C#N)Cc1ccccc1 [Example 48, 1-[4′-((S)-1-{(S)-1-[((S)-Benzyl-cyano-methyl)-carbamoyl]-2-methyl-propylamino}-2,2,2-trifluoro-ethyl)-biphenyl-4-yl]-cyclopropanecarboxylic acid amide]  0.7 nM
20. CC(C)(F)C[C@H](N[C@@H](c1ccc(-c2ccc(-c3ccncc3)cc2)cc1)C(F)(F)F)C(=O)N[C@H](C#N)Cc1ccc(C#N)cc1F [Example 39, (S)-4-Fluoro-4-methyl-2-[(S)-2,2,2-trifluoro-1-(4′-pyridin-4-yl-biphenyl-4-yl)-ethylamino]-pentanoic acid [(S)-1-cyano-2-(4-cyano-2-fluoro-phenyl)-ethyl]-amide]  0.6 nM
21. CC(C)(F)C[C@H](N[C@@H](c1ccc(-c2ccc(C3(C(=O)N4CCOCC4)CC3)cc2)cc1)C(F)(F)F)C(=O)N[C@H](C#N)Cc1ccc(C#N)cc1F [Example 43, (S)-4-Fluoro-4-methyl-2-((S)-2,2,2-trifluoro-1-{4′-[1-(morpholine-4-carbonyl)-cyclopropyl]-biphenyl-4-yl}-ethylamino)-pentanoic acid [(S)-1-cyano-2-(4-cyano-2-fluoro-phenyl)-ethyl]-amide]  0.35 nM
22. CC(C)(F)C[C@H](N[C@@H](c1ccc(-c2ccc(C3(C(N)=O)CC3)cc2)cc1)C(F)(F)F)C(=O)N[C@H](C#N)Cc1ccc(C#N)cc1F [Example 38, 1-[4′-((S)-1-{(S)-1-[(S)-1-Cyano-2-(4-cyano-2-fluoro-phenyl)-ethylcarbamoyl]-3-fluoro-3-methyl-butylamino}-2,2,2-trifluoro-ethyl)-biphenyl-4-yl]-cyclopropanecarboxylic acid amide]  0.3 nM
23. CC(C)[C@H](N[C@@H](c1ccc(-c2ccc(N3CCNCC3)cc2)cc1)C(F)(F)F)C(=O)N[C@H](C#N)Cc1ccccc1 [Example 47, 4-[4′-((S)-1-{(S)-1-[((S)-Benzyl-cyano-methyl)-carbamoyl]-2-methyl-propylamino}-2,2,2-trifluoro-ethyl)-biphenyl-4-yl]-piperazin-1-ium; chloride]  0.1 nM
